System: LTB4 release from neutrophils
Assay: A23187 induced LTB4 release
Type: cell-based
Settings: Neutrophil; neutrophils from healthy human donors, test drug 1 hour at 37° C., 0.3 μg/ml A23187 10 min, LTB4 ELISA; range over the group of compounds; read-out: IC50, percent inhibition of LTB4 release
Experimental: The compounds of the present invention are tested in one or more of the assays described herein. Standard assays are used to evaluate activity of compounds in present invention on inflammatory cells. Attenuation of agonist-induced release of lipid mediator of neutrophil chemotaxis, leukotriene B4 (LTB4), is used to evaluate inhibitory effect on neutrophils.
Venous blood was collected from healthy human donors using heparin as an anti-coagulant. Neutrophils were isolated from freshly drawn blood after dextran sedimentation and ficoll separation (Eur J. Biochem. 169, 175, 1987). 180 μl of the of neutrophil suspension (0.2×10^6 cells/ml) was taken and added 19 μL of Hank's Buffer salt solution along with 1 μL of the test drug (200 times concentrated) in a 24 well plate and incubated at 37° C. for 1 hour. 3 minutes before the end of test compound incubation, 0.25 mM Ca^++/Mg^++ were added. Then, 0.3 μg/ml A23187 (Sigma Chem, USA) was added and incubated for further 10 min at 37° C. The reaction was stopped by adding 80 μL of cold methanol and centrifuged to remove cell debris (J Pharmacol Exp Ther. 297:267, 2001). The samples were analysed for LTB4 release using LTB4 ELISA kits (Assay Design Inc., USA). The amount of LTB4 released was quantified and percent inhibition of LTB4 release was calculated with respect to the difference between the A23187 stimulated and negative control cells, to compute IC50 values.

| Compound | IC50 [nM] |
| --- | --- |
| CCCCCCCCCCCCOCC12OC(CNC(=O)c3ccncc3)C(O)C1OC(C)(C)O2 [Compound 78, 1-O-Dodecyl-2,3-O-isopropylidene-6-deoxy-6-{[(pyridin-4-yl)-carbonyl]-amino}-α-L-sorbofuranoside] | ≥ 1300 |
| CCCCCCCCCCCCOCC12OC(CNC(=O)Cc3ccc(F)cc3)C(O)C1OC(C)(C)O2 [Compound 69, 1-O-Dodecyl-2,3-O-isopropylidene-6-deoxy-6-{[(4-fluorophenyl)acetyl}amino]-α-L-sorbofuranoside] | ≥ 1300 |
| CCCCCCCOCC12OC(C)C(C)(OC(=O)NS(=O)(=O)c3ccc(F)cc3)C1OC(C)(C)O2 [Compound 118, (4ξ)-1-O-Heptyl-2,3-O-isopropylidene-4-C-methyl-4-O-[{[(4-fluorophenyl)sulphonyl]amino}-carbonyl]-6-deoxy-α-L-erythro-hex-2-ulofuranoside] | ≥ 1300 |
| CCCCCCCCCCCCOCC12OC(CNC(=O)Cc3ccc(OC(F)(F)F)cc3)C(O)C1OC(C)(C)O2 [Compound 106, 1-O-Dodecyl-2,3-O-isopropylidene-6-deoxy-6-{[(4-trifluoromethoxyphenyl)acetyl]amino}-α-L-sorbofuranoside] | ≥ 1300 |
| CCCCCCCOCC12OC(C)C(C)(OC(=O)NS(=O)(=O)c3ccc(Cl)cc3)C1OC(C)(C)O2 [Compound 116, (4ξ)-1-O-Heptyl-2,3-O-isopropylidene-4-C-methyl-4-O-[{[(4-chlorophenyl)sulphonyl]amino}-carbonyl]-6-deoxy-α-L-erythro-hex-2-ulofuranoside] | ≥ 1300 |
| CCCCCCCCCCCCOCC12OC(CNC(=O)Cc3ccc(Cl)c(Cl)c3)C(O)C1OC(C)(C)O2 [Compound 94, 1-O-Dodecyl-2,3-O-isopropylidene-6-deoxy-6-{[(3,4-dichlorophenyl)acetyl]amino}-α-L-sorbofuranoside] | ≥ 1300 |
| CCCCCCCOCC12OC(C)C(C)(OC(=O)NS(=O)(=O)c3ccccc3)C1OC(C)(C)O2 [Compound 117, (4ξ)-1-O-Heptyl-2,3-O-isopropylidene-4-C-methyl-4-O-[{[phenylsulphonyl]amino}carbonyl]-6-deoxy-α-L-erythro-hex-2-ulofuranoside] | ≥ 1300 |

From patent US20100113371A9, “Derivatives Of Pentose Monosaccharides As Anti-Inflammatory Compounds” (RANBAXY LABORATORIES LIMITED INC., priority 2004, published 2010)
